Results from ChEMBL document CHEMBL1201861, “Genomics of Drug Sensitity in Cancer screening data, Wellcome Trust Sanger Institute”.

What was measured:
Test in all cases: cells
COLO-741 = type: functional, cell-based; conditions: Homo sapiens
Description: SANGER: Inhibition of human COLO-741 cell growth in a cell viability assay.

COR-L105 = type: functional, cell-based; conditions: Homo sapiens;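 further: cell growth inhibition determined with a viability assay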
Description: SANGER: Inhibition of human COR-L105 cell growth in a cell viability assay.

Ca9-22 = type: functional, cell-based; conditions: Homo sapiens;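 further: growth inhibition of Ca9-22 cells, read out with a cell viability assay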
Description: SANGER: Inhibition of human Ca9-22 cell growth in a cell viability assay.

Capan-2 = type: functional, cell-based; conditions: Homo sapiens;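 further: Capan-2 cell growth inhibition, read out with a viability assay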
Description: SANGER: Inhibition of human Capan-2 cell growth in a cell viability assay.

ChaGo-K-1 = type: functional, cell-based; conditions: Homo sapiens;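 further: growth inhibition of ChaGo-K-1 cells, read out with a cell viability assay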
Description: SANGER: Inhibition of human ChaGo-K-1 cell growth in a cell viability assay.

DBTRG-05MG = type: functional, cell-based; conditions: Homo sapiens;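 further: cell viability assay measuring growth inhibition of human DBTRG-05MG cells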
Description: SANGER: Inhibition of human DBTRG-05MG cell growth in a cell viability assay.

FaDu = type: functional, cell-based; conditions: Homo sapiens;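 further: cell viability readout of growth inhibition in FaDu cells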
Description: SANGER: Inhibition of human FADU cell growth in a cell viability assay.

FTC-133 = type: functional, cell-based; conditions: Homo sapiens
GAMG = type: functional, cell-based; conditions: Homo sapiens;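 further: cell growth inhibition measured by a viability assay in the GAMG human cell line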
Description: SANGER: Inhibition of human GAMG cell growth in a cell viability assay.

GCT = type: functional, cell-based; conditions: Homo sapiens;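 further: GCT cell line proliferation inhibition, read out with a cell viability assay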
Description: SANGER: Inhibition of human GCT cell growth in a cell viability assay.

HCC1395 = type: functional, cell-based; conditions: Homo sapiens;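 further: growth inhibition of HCC1395 cells, read out by a cell viability assay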
Description: SANGER: Inhibition of human HCC1395 cell growth in a cell viability assay.

HCC1599 = type: functional, cell-based; conditions: Homo sapiens;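 further: growth inhibition of HCC1599 cells, read out in a cell viability assay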
Description: SANGER: Inhibition of human HCC1599 cell growth in a cell viability assay.

HCC1806 = type: functional, cell-based; conditions: Homo sapiens;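 further: growth inhibition of the cancer cell line, determined with a cell viability assay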
Description: SANGER: Inhibition of human HCC1806 cell growth in a cell viability assay.

HCC1937 = type: functional, cell-based; conditions: Homo sapiens;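 further: growth inhibition measured with a cell viability read-out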
Description: SANGER: Inhibition of human HCC1937 cell growth in a cell viability assay.

HGC-27 = type: functional, cell-based; conditions: Homo sapiens;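 further: growth inhibition of human HGC-27 cells, read out in a cell viability assay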
Description: SANGER: Inhibition of human HGC-27 cell growth in a cell viability assay.

HT-1080 = type: functional, cell-based; conditions: Homo sapiens
Description: SANGER: Inhibition of human HT-1080 cell growth in a cell viability assay.

HT1197 = type: functional, cell-based, HT-1197; conditions: Homo sapiens
Description: SANGER: Inhibition of human HT-1197 cell growth in a cell viability assay.

Hs-578T = type: functional, cell-based; conditions: Homo sapiens
Description: SANGER: Inhibition of human Hs-578-T cell growth in a cell viability assay.

IST-SL2 = type: functional, cell-based; conditions: Homo sapiens;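 further: growth inhibition of human IST-SL2 cells, read out by a cell viability assay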
Description: SANGER: Inhibition of human IST-SL2 cell growth in a cell viability assay.

KYSE-180 = type: functional, cell-based; conditions: Homo sapiens;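 further: growth inhibition of KYSE-180 cells, read out with a cell viability assay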
Description: SANGER: Inhibition of human KYSE-180 cell growth in a cell viability assay.

KYSE-70 cell line = type: functional, cell-based; conditions: Homo sapiens;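 further: cell viability assay read-out, with IC50 expressing suppression of KYSE-70 cell growth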
Description: SANGER: Inhibition of human KYSE-70 cell growth in a cell viability assay.

LB647-SCLC = type: functional, cell-based; conditions: Homo sapiens;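 further: cell growth inhibition, read out by a viability assay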
Description: SANGER: Inhibition of human LB647-SCLC cell growth in a cell viability assay.

LCLC-103H cell line = type: functional, cell-based; conditions: Homo sapiens
Description: SANGER: Inhibition of human LCLC-103H cell growth in a cell viability assay.

LCLC-97TM1 = type: functional, cell-based; conditions: Homo sapiens;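 further: cell viability assay measuring growth inhibition of human LCLC-97TM1 cells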
Description: SANGER: Inhibition of human LCLC-97TM1 cell growth in a cell viability assay.

LU-165 = type: functional, cell-based; conditions: Homo sapiens
Description: SANGER: Inhibition of human LU-165 cell growth in a cell viability assay.

LoVo = type: functional, cell-based; conditions: Homo sapiens;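 further: growth inhibition of human LoVo cells, read out with a cell viability assay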
Description: SANGER: Inhibition of human LoVo cell growth in a cell viability assay.

MC-CAR = type: functional, cell-based; conditions: Homo sapiens;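 further: growth inhibition of the human MC-CAR cell line, read out by a cell viability assay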
Description: SANGER: Inhibition of human MC-CAR cell growth in a cell viability assay.

MDA-MB-157 = type: functional, cell-based; conditions: Homo sapiens
Description: SANGER: Inhibition of human MDA-MB-157 cell growth in a cell viability assay.

MHH-ES-1 = type: functional, cell-based; conditions: Homo sapiens;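 further: cell growth inhibition measured by a cell viability assay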
Description: SANGER: Inhibition of human MHH-ES-1 cell growth in a cell viability assay.

MKN-45 = type: functional, cell-based; conditions: Homo sapiens;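 further: growth inhibition of human MKN-45 cells, measured with a cell viability assay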
Description: SANGER: Inhibition of human MKN45 cell growth in a cell viability assay.

MKN-7 = type: functional, cell-based; conditions: Homo sapiens;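 further: growth inhibition of MKN-7 cells, read out with a cell viability assay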
Description: SANGER: Inhibition of human MKN7 cell growth in a cell viability assay.

MONO-MAC-6 = type: functional, cell-based; conditions: Homo sapiens;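 further: cell viability assay measuring growth inhibition of human MONO-MAC-6 cells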
Description: SANGER: Inhibition of human MONO-MAC-6 cell growth in a cell viability assay.

MeWo = type: functional, cell-based; conditions: Homo sapiens;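 further: growth inhibition of MeWo cells, determined by a cell viability readout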
Description: SANGER: Inhibition of human Mewo cell growth in a cell viability assay.

NB12 = type: functional, cell-based; conditions: Homo sapiens;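 further: growth inhibition of human NB12 cells, read out by a cell viability assay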
Description: SANGER: Inhibition of human NB12 cell growth in a cell viability assay.

NCI-H1563 = type: functional, cell-based; conditions: Homo sapiens;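 further: growth inhibition of human NCI-H1563 cells, read out with a cell viability assay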
Description: SANGER: Inhibition of human NCI-H1563 cell growth in a cell viability assay.

NCI-H1573 = type: functional, cell-based; conditions: Homo sapiens;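 further: growth inhibition of NCI-H1573 cells, read out with a cell viability assay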
Description: SANGER: Inhibition of human NCI-H1573 cell growth in a cell viability assay.

NCI-H2171 = type: functional, cell-based; conditions: Homo sapiens;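 further: growth inhibition of human NCI-H2171 cells, read out by a cell viability assay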
Description: SANGER: Inhibition of human NCI-H2171 cell growth in a cell viability assay.

NCI-H2228 = type: functional, cell-based; conditions: Homo sapiens;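 further: growth inhibition of human NCI-H2228 cells, read out by a cell viability assay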
Description: SANGER: Inhibition of human NCI-H2228 cell growth in a cell viability assay.

NCI-H322M = type: functional, cell-based; conditions: Homo sapiens;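 further: cell viability assay measuring inhibition of growth of human NCI-H322M cells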
Description: SANGER: Inhibition of human NCI-H322M cell growth in a cell viability assay.

NCI-H345 = type: functional, cell-based; conditions: Homo sapiens;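 further: growth inhibition of NCI-H345 cells measured with a cell viability assay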
Description: SANGER: Inhibition of human NCI-H345 cell growth in a cell viability assay.

NCI-H520 = type: functional, cell-based; conditions: Homo sapiens;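 further: growth inhibition of NCI-H520 cells, measured by a cell viability assay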
Description: SANGER: Inhibition of human NCI-H520 cell growth in a cell viability assay.

NY = type: functional, cell-based; conditions: Homo sapiens
Description: SANGER: Inhibition of human NY cell growth in a cell viability assay.

OE19 = type: functional, cell-based; conditions: Homo sapiens;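 further: growth inhibition of OE19 cells, measured through a cell viability read-out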
Description: SANGER: Inhibition of human OE19 cell growth in a cell viability assay.

OE33 = type: functional, cell-based; conditions: Homo sapiens;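 further: growth inhibition of human OE33 cells, measured by a cell viability assay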
Description: SANGER: Inhibition of human OE33 cell growth in a cell viability assay.

PANC-08-13 = type: functional, cell-based; conditions: Homo sapiens;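 further: cell growth inhibition, measured with a cell viability assay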
Description: SANGER: Inhibition of human PANC-08-13 cell growth in a cell viability assay.

Panc1005 = type: functional, cell-based; conditions: Homo sapiens;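 further: growth inhibition of human PANC-10-05 cells, measured by a cell viability assay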
Description: SANGER: Inhibition of human PANC-10-05 cell growth in a cell viability assay.

RO82-W-1 = type: functional, cell-based; conditions: Homo sapiens;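 further: growth inhibition of human RO82-W-1 cells, measured with a cell viability assay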
Description: SANGER: Inhibition of human RO82-W-1 cell growth in a cell viability assay.

SCC-25 = type: functional, cell-based; conditions: Homo sapiens;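 further: growth inhibition of SCC-25 cells, measured with a cell viability assay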
Description: SANGER: Inhibition of human SCC-25 cell growth in a cell viability assay.

SK-MES-1 = type: functional, cell-based; conditions: Homo sapiens;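 further: growth inhibition of human SK-MES-1 cells, read out with a cell viability assay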
Description: SANGER: Inhibition of human SK-MES-1 cell growth in a cell viability assay.

SW1783 = type: functional, cell-based; conditions: Homo sapiens;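 further: cell growth inhibition measured with a viability assay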
Description: SANGER: Inhibition of human SW1783 cell growth in a cell viability assay.

T-24 = type: functional, cell-based; conditions: Homo sapiens;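 further: growth inhibition of T-24 cells, read out with a cell viability assay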
Description: SANGER: Inhibition of human T-24 cell growth in a cell viability assay.

CWR22R = type: functional, cell-based; conditions: Homo sapiens, 22Rv1;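 further: growth inhibition of 22Rv1 cells, read out with a cell viability assay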
Description: SANGER: Inhibition of human 22RV1 cell growth in a cell viability assay.

A204 = type: functional, cell-based; conditions: Homo sapiens;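 further: growth inhibition of human A204 cells, read out with a cell viability assay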
Description: SANGER: Inhibition of human A204 cell growth in a cell viability assay.

ABC-1 = type: functional, cell-based; conditions: Homo sapiens;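 further: growth inhibition of human ABC-1 cells, read out by a cell viability assay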
Description: SANGER: Inhibition of human ABC-1 cell growth in a cell viability assay.

BFTC-905 = type: functional, cell-based; conditions: Homo sapiens
Description: SANGER: Inhibition of human BFTC-905 cell growth in a cell viability assay.

BPH-1 = type: functional, cell-based; conditions: Homo sapiens;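 further: cell viability assay measuring growth inhibition of human BPH-1 cells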
Description: SANGER: Inhibition of human BPH-1 cell growth in a cell viability assay.

CAL-148 = type: functional, cell-based; conditions: Homo sapiens
Description: SANGER: Inhibition of human CAL-148 cell growth in a cell viability assay.

CAL-27 = type: functional, cell-based; conditions: Homo sapiens;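 further: Viability-based readout, IC50 reflecting inhibition of CAL-27 cell growth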
Description: SANGER: Inhibition of human CAL-27 cell growth in a cell viability assay.

UACC-62 = type: functional, cell-based; conditions: Homo sapiens;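 further: growth inhibition of human UACC-62 cells, read out by a cell viability assay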
Description: SANGER: Inhibition of human UACC-62 cell growth in a cell viability assay.

UMUC3 = type: functional, cell-based; conditions: Homo sapiens;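 further: growth inhibition of human UM-UC-3 cells, read out with a cell viability assay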
Description: SANGER: Inhibition of human UM-UC-3 cell growth in a cell viability assay.

UMC-11 = type: functional, cell-based; conditions: Homo sapiens
Description: SANGER: Inhibition of human UMC-11 cell growth in a cell viability assay.

YT = type: functional, cell-based; conditions: Homo sapiens
Description: SANGER: Inhibition of human YT cell growth in a cell viability assay.

CC(O)(CS(=O)(=O)c1ccc(F)cc1)C(=O)Nc1ccc(C#N)c(C(F)(F)F)c1 (centres undefined) [BICALUTAMIDE]
IC50 (COLO-741): > 1.02 µM
IC50 (COR-L105): > 1.02 µM
IC50 (Ca9-22): > 1.02 µM
IC50 (Capan-2): > 1.02 µM
IC50 (ChaGo-K-1): > 1.02 µM
IC50 (DBTRG-05MG): > 1.02 µM
IC50 (FaDu): > 1.02 µM
IC50 (FTC-133): > 1.02 µM
IC50 (GAMG): > 1.02 µM
IC50 (GCT): > 1.02 µM
IC50 (HCC1395): > 1.02 µM
IC50 (HCC1599): > 1.02 µM
IC50 (HCC1806): > 1.02 µM
IC50 (HCC1937): > 1.02 µM
IC50 (HGC-27): > 1.02 µM
IC50 (HT-1080): > 1.02 µM
IC50 (HT1197): > 1.02 µM
IC50 (Hs-578T): > 1.02 µM
IC50 (IST-SL2): > 1.02 µM
IC50 (KYSE-180): > 1.02 µM
IC50 (KYSE-70 cell line): > 1.02 µM
IC50 (LB647-SCLC): > 1.02 µM
IC50 (LCLC-103H cell line): > 1.02 µM
IC50 (LCLC-97TM1): > 1.02 µM
IC50 (LU-165): > 1.02 µM
IC50 (LoVo): > 1.02 µM
IC50 (MC-CAR): > 1.02 µM
IC50 (MDA-MB-157): > 1.02 µM
IC50 (MHH-ES-1): > 1.02 µM
IC50 (MKN-45): > 1.02 µM
IC50 (MKN-7): > 1.02 µM
IC50 (MONO-MAC-6): > 1.02 µM
IC50 (MeWo): > 1.02 µM
IC50 (NB12): > 1.02 µM
IC50 (NCI-H1563): > 1.02 µM
IC50 (NCI-H1573): > 1.02 µM
IC50 (NCI-H2171): > 1.02 µM
IC50 (NCI-H2228): > 1.02 µM
IC50 (NCI-H322M): > 1.02 µM
IC50 (NCI-H345): > 1.02 µM
IC50 (NCI-H520): > 1.02 µM
IC50 (NY): > 1.02 µM
IC50 (OE19): > 1.02 µM
IC50 (OE33): > 1.02 µM
IC50 (PANC-08-13): > 1.02 µM
IC50 (Panc1005): > 1.02 µM
IC50 (RO82-W-1): > 1.02 µM
IC50 (SCC-25): > 1.02 µM
IC50 (SK-MES-1): > 1.02 µM
IC50 (SW1783): > 1.02 µM
IC50 (T-24): > 1.02 µM
IC50 (CWR22R): > 1.02 µM
IC50 (A204): > 1.02 µM
IC50 (ABC-1): > 1.02 µM
IC50 (BFTC-905): > 1.02 µM
IC50 (BPH-1): > 1.02 µM
IC50 (CAL-148): > 1.02 µM
IC50 (CAL-27): > 1.02 µM
IC50 (UACC-62): > 1.02 µM
IC50 (UMUC3): > 1.02 µM
IC50 (UMC-11): > 1.02 µM
IC50 (YT): > 1.02 µM

CCNC(=O)c1noc(-c2cc(C(C)C)c(O)cc2O)c1-c1ccc(CN2CCOCC2)cc1 [LUMINESPIB]
IC50 (COLO-741): 0.0553 µM
IC50 (COR-L105): 0.0191 µM
IC50 (Ca9-22): 0.028 µM
IC50 (Capan-2): 0.00638 µM
IC50 (ChaGo-K-1): 0.127 µM
IC50 (DBTRG-05MG): 0.0296 µM
IC50 (FaDu): 0.0674 µM
IC50 (FTC-133): > 0.256 µM
IC50 (GAMG): 0.0137 µM
IC50 (GCT): 0.0416 µM
IC50 (HCC1395): > 0.256 µM
IC50 (HCC1599): 0.096 µM
IC50 (HCC1806): 0.111 µM
IC50 (HCC1937): 0.0446 µM
IC50 (HGC-27): 0.0176 µM
IC50 (HT-1080): 0.0221 µM
IC50 (HT1197): 0.0168 µM
IC50 (Hs-578T): > 0.256 µM
IC50 (IST-SL2): 0.0574 µM
IC50 (KYSE-180): 0.00586 µM
IC50 (KYSE-70 cell line): 0.0381 µM
IC50 (LB647-SCLC): 0.24 µM
IC50 (LCLC-103H cell line): 0.0043 µM
IC50 (LCLC-97TM1): 0.013 µM
IC50 (LU-165): 0.154 µM
IC50 (LoVo): 0.0393 µM
IC50 (MC-CAR): 0.0457 µM
IC50 (MDA-MB-157): > 0.256 µM
IC50 (MHH-ES-1): 0.0126 µM
IC50 (MKN-45): 0.206 µM
IC50 (MKN-7): > 0.256 µM
IC50 (MONO-MAC-6): 0.0389 µM
IC50 (MeWo): > 0.256 µM
IC50 (NB12): 0.0952 µM
IC50 (NCI-H1563): > 0.256 µM
IC50 (NCI-H1573): 0.177 µM
IC50 (NCI-H2171): 0.186 µM
IC50 (NCI-H2228): 0.0106 µM
IC50 (NCI-H322M): > 0.256 µM
IC50 (NCI-H345): > 0.256 µM
IC50 (NCI-H520): 0.0266 µM
IC50 (NY): 0.0174 µM
IC50 (OE19): 0.0195 µM
IC50 (OE33): 0.0424 µM
IC50 (PANC-08-13): 0.0772 µM
IC50 (Panc1005): 0.0175 µM
IC50 (RO82-W-1): > 0.256 µM
IC50 (SCC-25): 0.136 µM
IC50 (SK-MES-1): 0.00945 µM
IC50 (SW1783): 0.00591 µM
IC50 (T-24): 0.0538 µM
IC50 (CWR22R): 0.0351 µM
IC50 (A204): 0.0212 µM
IC50 (ABC-1): 0.0876 µM
IC50 (BFTC-905): 0.00938 µM
IC50 (BPH-1): 0.0103 µM
IC50 (CAL-148): 0.243 µM
IC50 (CAL-27): 0.0816 µM
IC50 (UACC-62): 0.121 µM
IC50 (UMUC3): 0.0495 µM
IC50 (UMC-11): > 0.256 µM
IC50 (YT): 0.0118 µM
